What all share (assay type): cell-based
Assay [1] deals with ICSBP. Briefly: ICSBP expression (Western blot). The protocol:
The 10% SDS Polyacrylamide gels (Inveitrogen) were transferred to Pure Nitrocellulose membrane (BioRed, Hercules, Calif.). The membranes were blocked with 5% milk in TBST buffer and incubated with anti-c-Rel, anti-p65, anti-p50, anti-ICSBP or anti-PU-1 antibody (all the antibodies were purchased from Santa Cruz) at a dilution of 1:500 for 1 h at room temperature or overnight at 4C. The membranes were washed and incubated with Horseradish Peroxidase-conjugated anti-rabbit IgG or anti-mouse IgG (Amersham, England) at a dilution of 1:2000 at room temperature for 1 h.
Of the transcription factors that have been analyzed, two factors, ICSBP and c-Rel, seem to be affected by Compound 4/Compound 50 treatment. ICSBP binds indirectly to the Ets-2 site. The primary NF-κB trans-activator for IL-12 is the c-Rel/p50 heterodimer. Other dimers (p65/p50 and p50/p50) either lack activity or have inhibitory functions. Thus, c-Rel plays a role in IL-12 transcription as a result of both activation through NF-κB and its interaction with ICSBP. […] The membranes were blocked with 5% milk in TBST buffer and then incubated with anti-c-Rel, anti-p65, anti-p50, anti-ICSBP or anti-PU-1 antibody (all the antibodies were purchased from Santa Cruz) at a dilution of 1:500 for 1 h at room temperature or overnight at 4° C. The membranes were washed and incubated with Horseradish Peroxidase-conjugated anti-rabbit IgG or anti-mouse IgG (Amersham, England) at a dilution of 1:2000 at room temperature for 1 h.
ICSBP, whose expression was reduced by Compound 50, was over-expressed using co-transfection with the IL-12 promoter-Luc report system. The over-expression construct of ICSBP was generated by PCR from cDNA of human PBMC using primers as follow: ICSBP-exp-F: 5′-[…]-3′ (SEQ ID NO:1) and ICSBP-exp-R: 5′-[…]-3′ (SEQ ID NO:2), the resulting PCR products was ligated to pCI vector (Promega).

Assay [2] concerns p65. The assay is described as follows: Nuclear p65 in PMA+ionomycin stimulated Jurkat T cells (immunoblot). The note with it: 100 nM.
Assay [3] concerns p50. The assay is described as follows: Nuclear p50 in PMA+ionomycin stimulated Jurkat T cells (immunoblot). Particulars: 100 nM.
Assay [4] has as its system NF-κB p65. Briefly: Kinetics of p65 nuclear translocation in LPS-stimulated THP1 cells (immunoblot, densitometry). The note with it: 100 nM. The method, then:
Compound 50 impairs nuclear accumulation of c-Rel and slightly reduces nuclear accumulation of p50. We examined the nuclear translocation kinetics of NF-κB family members in LPS stimulated cells treated with Compound 50. THP1 cells were stimulated with LPS in either the presence or absence of 100 nM Compound 50, and the distribution of the NF-κB Rel family members was determined by immunoblotting nuclear (n.p.) extracts collected at 5 min, 15 min, 30 min, 1 h, 3 h and 6 h post-treatment. In response to LPS stimulation, p50 translocated into the nucleus as early as 5 minutes post-stimulation and accumulates as time goes on (FIG. 4, immunoblots and FIG. 5 densitometry). […] The experiment examining p65 nuclear translocation is shown in FIG. 6 (immunoblots) and FIG. 7 (densitometry). In LPS stimulated cells, p65 translocated into the nucleus as early as 5 minutes post-stimulation and accumulated to maximum levels at 15-30 minutes post-stimulation. Treatment of LPS-stimulated cells with Compound 50 had no effect on the kinetics of p65 nuclear entry.

For assay [5], the target named is T1, c-Rel (Mus musculus, UniProt P15307).
T1 construct: nuclear extracts from RAW cells stimulated with LPS/IFNγ; endogenous in cells; host or cells: RAW264.7
T1 sequence (P15307 whole entry): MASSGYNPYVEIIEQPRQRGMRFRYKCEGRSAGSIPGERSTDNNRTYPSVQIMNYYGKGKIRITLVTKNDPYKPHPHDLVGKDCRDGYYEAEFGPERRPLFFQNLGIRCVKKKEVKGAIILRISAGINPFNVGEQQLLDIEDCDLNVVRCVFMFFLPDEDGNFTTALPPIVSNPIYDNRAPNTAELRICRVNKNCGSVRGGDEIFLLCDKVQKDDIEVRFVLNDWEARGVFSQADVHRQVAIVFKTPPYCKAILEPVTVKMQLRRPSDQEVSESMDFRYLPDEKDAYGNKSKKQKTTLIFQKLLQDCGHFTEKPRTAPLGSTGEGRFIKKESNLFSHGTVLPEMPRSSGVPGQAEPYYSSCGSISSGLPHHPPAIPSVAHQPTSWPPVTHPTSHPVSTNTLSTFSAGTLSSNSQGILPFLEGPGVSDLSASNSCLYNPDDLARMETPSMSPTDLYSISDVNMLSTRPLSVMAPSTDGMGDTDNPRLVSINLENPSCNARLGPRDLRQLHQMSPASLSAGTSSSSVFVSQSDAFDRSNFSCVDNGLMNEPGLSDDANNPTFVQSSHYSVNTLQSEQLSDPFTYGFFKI
The assay is described as follows: Immunofluorescence of c-Rel nuclear accumulation in LPS-stimulated RAW264.7 cells. The note with it: 100 nM. The method, then: We next examined whether compound 50 can block the accumulation of c-Rel in the nucleus of cells induced by LPS (FIG. 2). RAW264.7 cells cultured in DMEM with 10% BCS were split and seeded into 4-well chambered slides at 80,000 cells/well density. The cells were then treated with DMSO, Compound 50 (100 nM), LPS (Sigma, 5 μg/mL), LPS (5 μg/mL)+Compound 50 (100 nM) for 4 hours and fixed with 3% paraformaldehyde solution (1×PBS) after 1× quick rinse with 1×PBS. Fixed cells were permeablized with 0.2% TX100 and immunostained with anti-cRel antibody (SC70, Santa Cruz, 1:200 dilution) or anti-NF-κB p65 antibody (SC109, Santa Cruz, 1:100 dilution), and subsequently stained with Alexa Fluor 488 Goat-anti-Rabbit secondary antibody and DAPI (Molecular Probes, 1.1 μM). Images were obtained with CoolSNAP monochrome CCD camera on a Nikon inverted microscope TE300 using identical imaging parameters and were processed identically with Photoshop CS software. As observed previously, c-Rel localized to the cytoplasm in DMSO-treated cells and to the nucleus in LPS-treated cells. […] We also examined whether Compound 50 blocks the nuclear accumulation of another NF-κB/Rel family member, p65, in LPS-stimulated RAW cells (FIG. 3). As observed for c-Rel, p65 was localized to the cytoplasm in DMSO and Compound 50-treated cells and to the nucleus in LPS-stimulated cells. […]

Assay [6] has as its system p65. Briefly: LPS/IFNγ-induced phosphorylation of p65 in THP1 cells (immunoblot). Particulars: THP1, 100 nM, residues Ser-276, Ser-468 and Ser-927. The protocol: In this study, we examined the effect of Compound 50 on LPS-induced phosphorylation of the NF-κB members p65 and p105/p50. THP1 monocytic cells were stimulated with IFNγ plus LPS in the presence or absence of 100 nM Compound 50 (30 min, 1 h and 3 h) and whole-cell extracts were immunoblotted using anti-phospho p65 and p105/p50 antibodies to detect the phosphorylated forms of these proteins. […] LPS/IFNγ induced phosphorylation of p65 as early as 30 minutes on residues Ser-276, Ser-468 and […]. Compound 50 had no effect on LPS/IFNγ induced phosphorylation at these sites. […] LPS/IFNγ induced phosphorylation of p105 as early as 30 minutes on residues Ser-927 and Ser-933. Compound 50 had no effect on LPS/IFNγ induced phosphorylation at these sites.
For orientation: A western blot detects proteins with antibodies after separation by electrophoresis.

Each structure is given as a SMILES string.

Regarding `Cc1cccc(/C=N/Nc2cc(N3CCOCC3)nc(OCCc3ccccn3)n2)c1` [Compound 50, N-(3-Methyl-benzylidene)-N′-[6-morpholin-4-yl-2-(2-pyridin-2-yl-ethoxy)-pyrimidin-4-yl]-hydrazine], in assay [1], the ICSBP expression entry is on record as “reduced”. In addition, the “transcription factor ICSBP affected by treatment” value in assay [1] (of the transcription factors analyzed) is recorded as “affected”. Further, the “nuclear p65 levels” value in assay [2] is listed as “unchanged”. Further, the “nuclear levels of p50” value in assay [3] is on record as “slightly reduced”. Moreover, the “kinetics of p65 nuclear entry” value in assay [4] was “no effect”. Also, in assay [4] (6 hours), the “level of nuclear p65 relative to untreated cells” value is given as “small increase”. The “LPS-induced accumulation of c-Rel in the nucleus” value in assay [5] (RAW264.7, LPS 5 μg/mL, 4 hours) was “inhibited”. Also, in assay [5] (RAW264.7, absence of LPS, 4 h), the “nuclear/cytoplasmic distribution of c-Rel” value is recorded as “did not alter”. For the same molecule, in assay [6], the “LPS/IFNγ induced phosphorylation of p65” value is recorded as “no effect”.

(Values after patent US20120021434A1, “METHOD FOR TREATING B CELL REGULATED AUTOIMMUNE DISORDERS” (Synta Pharmaceuticals Corp., priority 2005, published 2012).)
